This note sets out measurements from patent US12589156B2, “Benzimidazole and benzimidazolone based protac compounds for the targeted degradation of leucine rich repeat kinase 2 (LRRK2)” (Arvinas Operations, Inc., priority 2023, dated 2026).

The experiment concerns the target T1, WT LRRK2 (Homo sapiens, UniProt Q5S007).
T1 construct: endogenous in cells; host or cells: HEK293 (endogenous LRRK2 gene knock-in tagged with HiBit; stably expressing CMV-driven firefly luciferase)
Put plainly: LRRK2 HiBit degradation assay (Nano-Glo Dual Luciferase) in HEK293 cells with HiBit-tagged endogenous LRRK2. The class given is cell-based. The essentials:
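HEK293 cells carrying endogenous C-terminally HiBit-tagged LRRK2 and stably expressing CMV-driven firefly luciferase were treated for 24 h at 37° C with an 11-point 1:3 series from a 1 μM final top concentration. Nano-Glo Dual Luciferase read LRRK2-HiBit against firefly signal. Alamar Blue gave viability, and signals were normalized to DMSO median before curve fitting.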
(With HiBiT, luminescence reflects the tagged protein that the partner subunit can reach.)

Setting [1] is: HEK293, Table 2, maximal degradation, HiBit-tagged LRRK2 in HEK293 cells, 24 hours treatment.
Where [2] appears, read: HEK293, Table 3, comparison with direct comparators, maximal degradation.
Setting [3] is: Table 2, HiBit-tagged LRRK2 in HEK293 cells, 24 hours treatment, starting concentration 1 μM.
[4] abbreviates: Table 3, comparison with direct comparators, HiBit-tagged LRRK2 in HEK293 cells, 24 hours treatment.
[5] abbreviates: Table 2, maximal degradation, HiBit-tagged LRRK2 in HEK293 cells, 24 hours treatment.

T1 sequence (Q5S007 whole entry): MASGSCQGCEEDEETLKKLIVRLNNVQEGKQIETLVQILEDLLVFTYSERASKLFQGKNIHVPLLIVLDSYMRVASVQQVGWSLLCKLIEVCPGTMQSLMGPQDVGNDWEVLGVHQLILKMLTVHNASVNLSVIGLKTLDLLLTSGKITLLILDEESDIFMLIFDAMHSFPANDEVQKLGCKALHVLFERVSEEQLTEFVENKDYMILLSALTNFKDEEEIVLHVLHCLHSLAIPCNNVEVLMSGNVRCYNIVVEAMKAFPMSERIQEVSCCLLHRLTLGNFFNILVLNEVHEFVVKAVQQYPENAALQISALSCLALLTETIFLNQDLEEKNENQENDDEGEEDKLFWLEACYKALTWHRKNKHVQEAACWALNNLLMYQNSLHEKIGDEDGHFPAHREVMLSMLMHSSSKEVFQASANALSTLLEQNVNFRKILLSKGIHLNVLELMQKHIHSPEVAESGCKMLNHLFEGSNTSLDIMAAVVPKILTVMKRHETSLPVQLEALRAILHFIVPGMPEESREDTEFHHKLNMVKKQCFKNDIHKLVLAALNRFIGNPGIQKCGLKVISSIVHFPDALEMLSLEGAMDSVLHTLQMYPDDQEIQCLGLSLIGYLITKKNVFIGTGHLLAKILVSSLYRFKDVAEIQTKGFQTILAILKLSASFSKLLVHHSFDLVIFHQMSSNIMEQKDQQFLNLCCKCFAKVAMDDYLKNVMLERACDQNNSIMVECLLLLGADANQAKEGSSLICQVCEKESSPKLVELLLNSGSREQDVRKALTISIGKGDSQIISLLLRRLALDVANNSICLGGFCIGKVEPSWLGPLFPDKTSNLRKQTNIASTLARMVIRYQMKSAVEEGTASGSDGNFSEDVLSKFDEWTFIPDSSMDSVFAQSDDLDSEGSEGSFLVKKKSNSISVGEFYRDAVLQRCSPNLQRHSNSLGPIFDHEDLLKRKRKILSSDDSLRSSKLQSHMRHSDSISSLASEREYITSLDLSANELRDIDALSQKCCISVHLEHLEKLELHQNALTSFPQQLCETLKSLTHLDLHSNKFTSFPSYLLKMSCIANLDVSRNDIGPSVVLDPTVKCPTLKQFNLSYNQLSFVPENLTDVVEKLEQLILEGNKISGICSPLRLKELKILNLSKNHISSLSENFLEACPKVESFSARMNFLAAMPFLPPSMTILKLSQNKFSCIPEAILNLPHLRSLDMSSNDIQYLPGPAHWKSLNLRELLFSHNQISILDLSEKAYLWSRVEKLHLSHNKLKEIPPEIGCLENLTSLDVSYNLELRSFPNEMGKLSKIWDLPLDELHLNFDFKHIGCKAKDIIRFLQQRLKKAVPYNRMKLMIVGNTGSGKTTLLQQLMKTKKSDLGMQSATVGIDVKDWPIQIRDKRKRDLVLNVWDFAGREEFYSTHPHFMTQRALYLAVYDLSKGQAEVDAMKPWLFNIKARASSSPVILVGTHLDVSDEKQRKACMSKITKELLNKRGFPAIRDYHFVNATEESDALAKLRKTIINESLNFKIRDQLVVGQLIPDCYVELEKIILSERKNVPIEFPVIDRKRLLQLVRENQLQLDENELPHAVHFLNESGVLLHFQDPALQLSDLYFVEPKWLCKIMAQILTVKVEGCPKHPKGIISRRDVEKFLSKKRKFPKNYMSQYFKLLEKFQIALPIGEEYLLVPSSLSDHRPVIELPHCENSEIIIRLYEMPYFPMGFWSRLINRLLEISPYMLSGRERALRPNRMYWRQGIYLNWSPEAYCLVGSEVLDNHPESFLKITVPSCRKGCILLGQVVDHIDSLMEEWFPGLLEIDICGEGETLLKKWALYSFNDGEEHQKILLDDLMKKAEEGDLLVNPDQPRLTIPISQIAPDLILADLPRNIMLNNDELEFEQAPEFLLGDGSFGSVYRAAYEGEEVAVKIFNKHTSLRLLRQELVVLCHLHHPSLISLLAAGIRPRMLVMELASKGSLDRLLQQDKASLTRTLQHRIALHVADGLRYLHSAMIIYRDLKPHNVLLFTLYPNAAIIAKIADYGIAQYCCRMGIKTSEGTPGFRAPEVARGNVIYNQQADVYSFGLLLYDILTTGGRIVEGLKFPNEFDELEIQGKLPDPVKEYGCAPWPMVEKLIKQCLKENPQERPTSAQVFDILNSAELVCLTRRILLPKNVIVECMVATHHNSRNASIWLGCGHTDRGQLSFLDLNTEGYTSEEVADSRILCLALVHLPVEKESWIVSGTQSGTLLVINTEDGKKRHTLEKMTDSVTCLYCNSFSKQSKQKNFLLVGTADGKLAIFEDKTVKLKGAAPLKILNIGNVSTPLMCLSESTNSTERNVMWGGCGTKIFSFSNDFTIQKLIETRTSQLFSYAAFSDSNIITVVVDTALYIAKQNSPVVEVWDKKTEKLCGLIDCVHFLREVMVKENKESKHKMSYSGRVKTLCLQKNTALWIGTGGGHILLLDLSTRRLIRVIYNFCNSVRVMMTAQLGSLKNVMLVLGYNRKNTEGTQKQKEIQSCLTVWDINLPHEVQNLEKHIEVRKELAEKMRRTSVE

Usually Dmax stands for the greatest extent of degradation seen. Read a high Dmax as a fuller loss of target. As usually defined, the DC50 is the concentration giving 50% degradation. High values mean a less potent degrader, low ones a more potent degrader. Take `CC1(Oc2ccc3[nH]nc(-c4cc(N5CCC(CN6CCN(CC7CCN(c8cccc9c8ncn9C8CCC(=O)NC8=O)CC7)CC6)CC5)ncn4)c3c2)CC1` (centres unmarked) [Compound 70, 3-{4-[4-({4-[(1-{6-[5-(1-methylcyclopropoxy)-1H-indazol-3-yl]pyrimidin-4-yl}piperidin-4-yl)methyl]piperazin-1-yl}methyl)piperidin-1-yl]-1H-1,3-benzodiazol-1-yl}piperidine-2,6-dione]: the maximal degradation (Dmax) worked out at 33% under setting [1] and 33% under setting [2]. In addition, the half-maximal degradation concentration (DC50) is 20 nM under setting [3] and 20 nM under setting [4].
Molecule `Cn1c(=O)n(C2CCC(=O)NC2=O)c2ccc(N3CCC(O[C@H]4CC[C@H](CN5CCN(c6cc(-c7n[nH]c8cnc(OC(C)(C)C)cc78)ncn6)CC5)CC4)CC3)cc21` (single isomer, unassigned) [Compound 19, rel-3-[3-methyl-2-oxo-5-(4-{[(1r,4r)-4-[(4-{6-[5-(tert-butoxy)-1H-pyrazolo[3,4-c]pyridin-3-yl]pyrimidin-4-yl}piperazin-1-yl)methyl]cyclohexyl]oxy}piperidin-1-yl)-2,3-dihydro-1H-1,3-benzodiazol-1-yl]piperidine-2,6-dione] returned a Dmax under setting [1] of 76%. Under setting [3], the DC50 is 28 nM.
`CCOc1ccc2[nH]nc(-c3cc(N4CCN(C[C@H]5CC[C@H](OC6CCN(c7ccc8c(c7)n(C)c(=O)n8C7CCC(=O)NC7=O)CC6)CC5)CC4)ncn3)c2c1` (single isomer, unassigned) [Compound 61, rel-3-[3-methyl-2-oxo-5-(4-{[(1r,4r)-4-({4-[6-(5-ethoxy-1H-indazol-3-yl)pyrimidin-4-yl]piperazin-1-yl}methyl)cyclohexyl]oxy}piperidin-1-yl)-2,3-dihydro-1H-1,3-benzodiazol-1-yl]piperidine-2,6-dione]: the Dmax under setting [1] came out at 48%. The molecule further registered a DC50 under setting [3] of 0.51 nM.
The matching figures for `Cn1c(=O)n(C2CCC(=O)NC2=O)c2ccc(N3CCC(O[C@H]4CC[C@H](CN5CCN(c6cc(-c7n[nH]c8ccc(C9(C#N)CC%10(CC%10)C9)cc78)ncn6)CC5)CC4)CC3)cc21` (single isomer, unassigned) [Compound 64, rel-5-{3-[6-(4-{[(1r,4r)-4-({1-[1-(2,6-dioxopiperidin-3-yl)-3-methyl-2-oxo-2,3-dihydro-1H-1,3-benzodiazol-5-yl]piperidin-4-yl}oxy)cyclohexyl]methyl}piperazin-1-yl)pyrimidin-4-yl]-1H-indazol-5-yl}spiro[2.3]hexane-5-carbonitrile]: 63% and 0.16 nM.
In turn, `CC1(Oc2ccc3[nH]nc(-c4cc(N5CCN(C[C@H]6CC[C@H](OC7CCN(c8ccc9c(ncn9C9CCC(=O)NC9=O)c8F)CC7)CC6)CC5)ncn4)c3c2)CC1` (stereo partly drawn) [Compound 45, rel-3-[4-fluoro-5-(4-{[(1r,4r)-4-[(4-{6-[5-(1-methylcyclopropoxy)-1H-indazol-3-yl]pyrimidin-4-yl}piperazin-1-yl)methyl]cyclohexyl]oxy}piperidin-1-yl)-1H-1,3-benzodiazol-1-yl]piperidine-2,6-dione] yielded a Dmax under setting [1] of 56% and a Dmax under setting [2] of 56%. For the same molecule, the DC50 runs as follows: under setting [3], 3.9 nM; under setting [4], 3.9 nM.
Under setting [2], `COc1c(N2CCC(CN3CCN(CC4CCN(c5cc(-c6n[nH]c7ccc(OC8(C)CC8)cc67)ncn5)CC4)CC3)CC2)ccc2c1CN(C1CCC(=O)NC1=O)C2=O` (centres unmarked) [Comparative Example 4, reference compound] came in with a Dmax of 80%. Besides, the 50% degradation concentration (DC50) under setting [4] is 0.79 nM.
`CC1(Oc2ccc3[nH]nc(-c4cc(N5CCC(CN6CCN(CC7CCN(c8ccc9ncn(C%10CCC(=O)NC%10=O)c9c8)CC7)CC6(C)C)CC5)ncn4)c3c2)CC1` (centres unmarked) [Compound 10, 3-{6-[4-({3,3-dimethyl-4-[(1-{6-[5-(1-methylcyclopropoxy)-1H-indazol-3-yl]pyrimidin-4-yl}piperidin-4-yl)methyl]piperazin-1-yl}methyl)piperidin-1-yl]-1H-1,3-benzodiazol-1-yl}piperidine-2,6-dione] displayed a Dmax under setting [1] of 69%. Further, the 50% degradation concentration (DC50) under setting [3] is 4.5 nM.
In the same order, the values of `Cn1c(=O)n(C2CCC(=O)NC2=O)c2ccc(N3CCC(O[C@H]4CC[C@H](CN5CCN(c6cc(-c7n[nH]c8ccc(C9(C#N)CC9)cc78)ncn6)CC5)CC4)CC3)cc21` (single isomer, unassigned) [Compound 63, rel-1-{3-[6-(4-{[(1r,4r)-4-({1-[1-(2,6-dioxopiperidin-3-yl)-3-methyl-2-oxo-2,3-dihydro-1H-1,3-benzodiazol-5-yl]piperidin-4-yl}oxy)cyclohexyl]methyl}piperazin-1-yl)pyrimidin-4-yl]-1H-indazol-5-yl}cyclopropane-1-carbonitrile] are 56% and 0.13 nM.
In the same order, the values of `CC(C)n1c(=O)n(C2CCC(=O)NC2=O)c2ccc(N3CCC(CN4CCN(CC5CCN(c6cc(-c7n[nH]c8ccc(OC9(C)CC9)cc78)ncn6)CC5)C(C)(C)C4)CC3)cc21` (centres unmarked) [Compound 2, 3-{5-[4-({3,3-dimethyl-4-[(1-{6-[5-(1-methylcyclopropoxy)-1H-indazol-3-yl]pyrimidin-4-yl}piperidin-4-yl)methyl]piperazin-1-yl}methyl)piperidin-1-yl]-2-oxo-3-(propan-2-yl)-2,3-dihydro-1H-1,3-benzodiazol-1-yl}piperidine-2,6-dione] are 55% and 0.18 nM.
Take `Cn1c(=O)n(C2CCC(=O)NC2=O)c2ccc(N3CCC(OC[C@H]4C[C@H](OC5CCN(c6cc(-c7n[nH]c8ccc(OC9(C)CC9)cc78)ncn6)CC5)C4)CC3)cc21` (single isomer, unassigned) [Compound 33, rel-3-[3-methyl-2-oxo-5-(4-{[(1r,3r)-3-[(1-{6-[5-(1-methylcyclopropoxy)-1H-indazol-3-yl]pyrimidin-4-yl}piperidin-4-yl)oxy]cyclobutyl]methoxy}piperidin-1-yl)-2,3-dihydro-1H-1,3-benzodiazol-1-yl]piperidine-2,6-dione]: half-maximal degradation under setting [3] (DC50) was put at 0.14 nM. The molecule further returned a maximal degradation (Dmax) under setting [5] of 62%.
Consider `Cn1c(=O)n(C2CCC(=O)NC2=O)c2ccc(N3CCC(OC4CCC(CN5CCN(c6cc(-c7n[nH]c8ccc(OC(C)(C)C)cc78)ncn6)CC5)CC4)CC3)cc21` (stereo not drawn) [Compound 54, rel-3-[3-methyl-2-oxo-5-(4-{[(1r,4r)-4-[(4-{6-[5-(tert-butoxy)-1H-indazol-3-yl]pyrimidin-4-yl}piperazin-1-yl)methyl]cyclohexyl]oxy}piperidin-1-yl)-2,3-dihydro-1H-1,3-benzodiazol-1-yl]piperidine-2,6-dione], for which half-maximal degradation under setting [3] (DC50) was put at 0.33 nM. For the same molecule, under setting [5], the “WT LRRK2 **Dmax (%)” value worked out at 53%.
Under setting [1], `CC1(Oc2ccc3[nH]nc(-c4cc(N5CCC(CN6CCN(CC7CCN(c8ccc9ncn(C%10CCC(=O)NC%10=O)c9c8)CC7)CC6)CC5)ncn4)c3c2)CC1` (centres unmarked) [Compound 7, 3-{6-[4-({4-[(1-{6-[5-(1-methylcyclopropoxy)-1H-indazol-3-yl]pyrimidin-4-yl}piperidin-4-yl)methyl]piperazin-1-yl}methyl)piperidin-1-yl]-1H-1,3-benzodiazol-1-yl}piperidine-2,6-dione] returned a Dmax of 64%. For the same molecule, under setting [3], half-maximal degradation (DC50) was put at 6.4 nM.
Under setting [2], `CC1(Oc2cc3c(-c4cc(N5CCN(C[C@H]6CC[C@H](OC7CCN(c8ccc9c(c8F)CN(C8CCC(=O)NC8=O)C9=O)CC7)CC6)CC5)ncn4)n[nH]c3cn2)CC1` (some centres unmarked) [Comparative Example 3, reference compound] returned a Dmax of 65%. The molecule further yielded a DC50 under setting [4] of 4.3 nM.
On to `Cn1c(=O)n(C2CCC(=O)NC2=O)c2ccc(N3CCC(O[C@H]4CC[C@H](CN5CCN(c6cc(-c7n[nH]c8cnc(C9(C#N)CCC9)cc78)ncn6)CC5)CC4)CC3)cc21` (single isomer, unassigned) [Compound 22, rel-1-{3-[6-(4-{[(1r,4r)-4-({1-[1-(2,6-dioxopiperidin-3-yl)-3-methyl-2-oxo-2,3-dihydro-1H-1,3-benzodiazol-5-yl]piperidin-4-yl}oxy)cyclohexyl]methyl}piperazin-1-yl)pyrimidin-4-yl]-1H-pyrazolo[3,4-c]pyridin-5-yl}cyclobutane-1-carbonitrile], for which the Dmax under setting [1] amounted to 46%. The same molecule yielded a DC50 under setting [3] of 0.14 nM.
